How the values were obtained:
contact activation = assay: Thrombin generation (CAT) in platelet poor plasma contact activated with kaolin; format: biochemical, human; details: for 4 × lag-time (ng/ml) / 4 × lag-time (μM): concentration that prolongs clotting time of kaolin contact activated plasma four times
Method: Thrombin generation was carried out according to WO2003/093831.
Following a double centrifugation at 2500×g for 15 min at room temperature, platelet poor plasma (PPP) was collected from the upper half volume of plasma supernatant, quick frozen and stored at −80° C. The absence of platelet and leucocyte in PPP was checked with an ADVIA 120 counter (Bayer Diagnostics, NY, USA).
Recombinant human tissue factor Innovin® was obtained from Dade Behring (Marburg, Germany) and used at a final concentration of 0.5 pM in PRP and 1 or 5 pM in PPP samples. The phospholipid vesicles used at a final concentration of […] were obtained from Avanti Polar Lipids (Alabaster, Ala., USA) and consisted of 20 mol % phosphatidylserine (PS), 20 mol % phosphatidylethanolamine (PE) and 60 mol % phosphatidylcholine (PC) and were prepared by extrusion method (9,10). Kaolin light (hydrated aluminium silicate) was obtained from Baker Harrison ltd, (Ilford, UK).
Hepes-buffered saline contained 20 mM Hepes (Sigma Aldrich, l'Ile d'Abeau Chesnes, France), 140 mM NaCl and 5 mg/mL bovine serum albumin (BSA) (Euromedex, Souffelweyersheim, France), pH 7.35. This buffer was stored at −20° C. until use. A fresh mixture of fluorogenic substrate and CaCl2 was prepared before each experiment. Fluorogenic substrate, Z-Gly-Gly-Arg-AMC, was obtained from Bachem (Bubendorf, Switzerland). The mixture of fluorogenic substrate 2.5 mM and CaCl2 0.1 M was prepared using buffer containing Hepes 20 mM and 60 mg/mL BSA, pH 7.35. The Calibrator with the activity of 600 nM human thrombin was obtained from Thrombinoscope BV (Maastricht, The Netherlands). Transparent, round bottom Greiner microtiter plates (Greiner ref 65204, Poitiers, France) were used.
Thrombin generation was measured using Calibrated Automated Thrombography (CAT) according to the methodology of WO2003/093831 and a 96-well plate fluorometer (Fluoroscan Ascent Reader, Thermolab systems OY, Helsinki, Finland) equipped with a 390/460 nm filter set. Briefly, 80 μL of plasma is dispensed into the wells of round-bottom 96 well-microtiter plates. 20 μL of a mixture containing tissue factor and phospholipids is added to the PPP sample; alternatively, in order to obtain contact activation, the citrated plasma is preincubated for at least 10 min with 1 mg/ml of Kaolin light. The starting reagent (20 μL per well) contains fluorogenic substrate and CaCl2. […] The most important parameters that can be derived from CAT are lag time, endogenous thrombin potential corresponding to the area under the CAT curve, peak height of thrombin and time to peak.

h-FXIIa = target: T1, h-FXIIa (Homo sapiens, UniProt P00748); assay: Stability of CTI, PTI and TICA at RT and at 95° C., read as inhibition of h-FXIIa; format: physicochemical; details: for Residual activity / Calculated total I / Activity of FXIIa / Free FXIIa: inhibitor exposed 60 minutes to 95° C.; for Calculated total I / Activity of FXIIa / Free FXIIa: added CTI 8.1 nM, TICA1 306 nM; for Activity of FXIIa / Free FXIIa: total FXIIa 9.33 nM
T1 construct: purchased Enzyme Research Laboratories FXIIa 1212A
T1 sequence (P00748 373-615 limits assumed): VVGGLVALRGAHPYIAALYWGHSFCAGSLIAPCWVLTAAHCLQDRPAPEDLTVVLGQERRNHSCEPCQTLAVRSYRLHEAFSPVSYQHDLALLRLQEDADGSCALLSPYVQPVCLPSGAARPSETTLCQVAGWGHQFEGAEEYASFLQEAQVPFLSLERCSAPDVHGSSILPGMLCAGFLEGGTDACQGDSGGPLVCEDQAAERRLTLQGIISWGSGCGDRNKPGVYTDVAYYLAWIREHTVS
T1 sequence (P00748 20-372 partner limits assumed): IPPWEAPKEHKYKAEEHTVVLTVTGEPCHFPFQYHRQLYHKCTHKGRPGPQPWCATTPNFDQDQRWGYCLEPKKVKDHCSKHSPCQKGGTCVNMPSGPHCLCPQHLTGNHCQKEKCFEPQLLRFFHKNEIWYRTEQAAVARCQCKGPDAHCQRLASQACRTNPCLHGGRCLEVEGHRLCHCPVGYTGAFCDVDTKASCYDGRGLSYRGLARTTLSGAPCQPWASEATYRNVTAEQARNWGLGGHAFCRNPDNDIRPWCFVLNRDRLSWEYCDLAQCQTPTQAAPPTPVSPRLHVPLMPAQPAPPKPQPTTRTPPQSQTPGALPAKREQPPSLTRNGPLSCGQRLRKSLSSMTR
Method: Materials • S2302 From Chromogenic, lot # N0398718 SEQ0860, exp. date 2012-07. Water added on 7 Oct. […] On 3 Aug. […] Product code FXIIa 1212A, lot #FXIIa 2520PL. Bottle with 0.5 mg was reconstituted with 370 μl pure water. […] Buffer 4 mM NaAc, 150 mM NaCl (pH 5.3). Preparation was divided into 20 μl amounts and frozen at −80° C. • Hepes735 140 mM NaCl, 20 mM Hepes, 0.02% NaN3 (pH 7.35). • BSA5 Hepes735+5 mg/ml BSA. • CTI Prepared on 17 Dec. 2004, 0.141 mg/ml, i.e. 0.141/12028=11.7*10^−6 M (11.7 μM). One portion was thawed and divided into 3 parts. […]
Stock FXIIa was diluted 700× in BSA5. The inhibitor was diluted in BSA5 as indicated. Wells contained 70 μl diluted FXIIa (5 nM final), 70 μl inhibitor and 20 μl S2302 (475 or 462.5 μM final). The reaction was started after 5 min heating on the heating plate with S2302. Filters 405 nm and 490 nm reference. Found ΔmA/min was multiplied by 2.14 to get the figure for a 1 cm path.
The residual activity (V) was fitted against the inhibitor concentration with equation:
V=(E+(sqrt(Ê2+2*E*(Ki−I)+Î2+2*I*Ki+Kî2)−E−I−Ki)/2)*kcat*S/(Km+S)
in which E=[FXIIa], Ki is the dissociation constant, I=[Inhibitor], kcat and Km are Michaelis constants and S=[S2302].
To calculate the concentration of I the equation I=x·(x−E−Ki)/(x−E) was used. In this equation is I the calculated inhibitor concentration, x=the residual activity of FXIIa (free FXIIa), E the total FXIIa concentration (=9.33 nM), and Ki the dissociation or inhibitor constant.

[1] = Retention of biological activity at room temperature and in boiling water; format: physicochemical; details: for biological activity after heating: 0.1 mM solution in closed ampoule in boiling water for 60 min
Method: (Example 7) This means that, unlike CTI, it can be added to citrate tubes that can be sterilized and used under clinical conditions. About 0.10 mg of TICA1 would be required per vacuum tube meant to take 10 ml of blood.

[2] = contact activation of PPP by kaolin
[3] = Kaolin, CTI 0.72 μM (8.64 μg/ml)

Molecule: CC[C@H](C)[C@@H]1NC(=O)[C@H](CCCNC(=N)N)NC(=O)[C@@H]2CCCN2C(=O)[C@@H](NC(=O)[C@@H](NC(=O)[C@@H](N)CCCNC(=N)N)C(C)C)CSSC[C@@H]2NC(=O)[C@H](CCC(=O)O)NC(=O)[C@H](C)NC(=O)[C@H](CC(C)C)NC(=O)[C@@H]3CSSC[C@@H](C(=O)NCC(=O)O)NC(=O)[C@H](Cc4ccc(O)cc4)NC(=O)CNC(=O)[C@H](Cc4c[nH]cn4)NC(=O)[C@H](CCC(=O)O)NC(=O)[C@H](CC(C)C)NC(=O)[C@H](CSSC[C@H](NC(=O)[C@H](CCCCN)NC(=O)[C@H](CCSC)NC(=O)[C@H](CC(C)C)NC1=O)C(=O)N[C@@H](CCCCN)C(=O)N[C@@H](CCCCN)C(=O)N[C@@H](CC(=O)O)C(=O)N[C@@H](CO)C(=O)N[C@@H](CC(=O)O)C(=O)N3)NC(=O)[C@H](C(C)C)NC2=O [TICA1]
- effect on lag time of thrombin generation triggered by contact activation (contact activation; FIG. 1): prolong the lag time
- inhibition of contact activation of PPP (contact activation; PPP incubated with kaolin, 0.94 to 4.6 μM): dose-dependent inhibition
- 4 × lag-time (ng/ml) (contact activation; After heating): 7.5 ng/mL
- 4 × lag-time (μM) (contact activation; After heating): 2.3 µM
- 4 × lag-time (ng/ml) (contact activation; Before heating): 7.8 ng/mL
- 4 × lag-time (μM) (contact activation; Before heating): 2.4 µM
- potency compared with CTI on a molar basis (contact activation; [2]): ~2.5 times less potent
- potency compared with CTI on a weight basis (contact activation; [2]): equipotent
- Ki (h-FXIIa; (Ki) (nM), inhibitor 30 min 95° C., h-FXIIa 5.01 nM): 24 nM
- Res. Act. (%) (h-FXIIa; inhibitor 30 min 95° C.): 94%
- Res. Act. (%) (h-FXIIa; inhibitor at RT during 72 hrs): 102%
- Residual activity (h-FXIIa): 81.7%
- Calculated total I (h-FXIIa): 250 nM
- Activity of FXIIa (h-FXIIa): 33.5 ± 1.78 mA/min
- Free FXIIa (h-FXIIa): 3.93 nM
- Res. Act. (%) (h-FXIIa; inhibitor kept at −80° C.): 100%
- biological activity after heating [1]: does not affect its biological activity
- stability at room temperature ([1]; left for weeks at room temperature): without loosing activity

B1: Corn trypsin inhibitor (other, UniProt P01088 29-138, looked up)
chain: SAGTSCVPGWAIPHNPLPSCRWYVTSRTCGIGPRLPWPELKRRCCRELADIPAYCRCTALSILMDGAIPPGPDAQLEGRLEDLPGCPREVQRGFAATLVTEAECNLATIS
notes: also called CTI
- ETP (contact activation; [3]): 1116
- Lag-time (contact activation; [3]): 18.62
- Peak (contact activation; [3]): 385
- ttPeak (contact activation; [3]): 20.06
- Residual activity (h-FXIIa): 29.3%
- Calculated total I (h-FXIIa): 2.37 nM
- Activity of FXIIa (h-FXIIa): 66.3 ± 1.32 mA/min
- Free FXIIa (h-FXIIa): 7.77 nM
- biological activity after heating [1]: significantly inactivated
